Results reported in patent US8158609B1, “Use of cyclodextrins as an active ingredient for treating dry AMD and solubilizing drusen” (Novartis AG, priority 2006, dated 2012).
Entries after “also recorded” stand apart in the source; their conditions may differ.

Assays:
mouse brown fat tissue = assay: lipid histochemistry of fresh fat tissue, Oil Red O staining (positive control tissue); conditions: for dissolving of mouse fat tissue: 37° C., 24 hrs, compared with untreated fat tissue
Protocol: (§1) Unfixed, donor eye with AMD drusen was immersed in 30% sucrose in PBS buffer at pH 7.4 for 24 hours at 4° C. for cryoprotection, then embedded in OCT. For cryostat sections, the eye was serially sectioned at 8 μm thickness and stored at −70° C. Drusen were identified under the microscope. Unfixed fresh frozen mouse brown fat tissue was sectioned at 10 μm thickness as the positive control.
Hydroxypropyl β-cyclodextrin selected compound was titered to the best concentration by mouse fat tissue at 37° C. for 24 hrs (Table.2).
(§2) Unfixed frozen human eye drusens were considered closest to the in vivo state of drusen. Mouse brown fat was used for positive control.

drusen = assay: in vitro drusen removal assay, frozen drusen sections treated with cyclodextrin, H&E staining; parameters: species or system human
Protocol: as §1
(§3) A viable in vitro assay to evaluate compounds with a potential to remove drusen in the eye was explored. Sections with drusen were treated with cyclodextrin for 30 min, 1 hr, 2 hrs, 4 hrs, 15 hrs at room temperature. In a subsequent experiment, sections with drusen were immersed in 40 ml of 25% Hydroxypropyl β-cyclodextrin at 37° C. for 24 hrs.
as §2

[1] = test system: lipid component of drusen; assay: lipid histochemistry of drusen in eyes with AMD, Oil Red O staining; parameters: species or system human; conditions: 40 ml of 25% solution, 37° C., 24 hrs
Protocol: as §1, §3, §2

Substance | dissolving of fresh mouse fat tissue (mouse brown fat tissue; 25% solution) | dissolving of mouse fat tissue (mouse brown fat tissue; 25%-45% solution) | size of a drusen, H&E 40× (FIG. 1C) (drusen; 25% solution, 2 hours) | change / dissolving of drusen by H&E staining (drusen; 40 ml, 25% (different concentration), 37° C., 24 hrs) | ORO staining of lipid-containing drusen / dissolving the lipid component of drusen [1] | dissolving of mouse fat tissue (mouse brown fat tissue; 30% solution)
Hydroxypropyl β-cyclodextrin | has efficacy in dissolving fresh mouse fat tissue | has effect on dissolving the partial fat tissue; also recorded: partial fat tissues were dissolved | reduced size | no change; also recorded: could not completely dissolve drusen | stained negatively; also recorded: has efficacy in dissolving the lipid component of drusen | –
Sulfonyletherbutyl β-cyclodextrin | – | – | – | – | – | partial fat tissues were dissolved
